From the supplement of paper PMC10307832

How the values were obtained:
Assay in all cases: relative viability (nuclei count vs DMSO), 5 days (fraction); higher = more cells survive
[1] = compound: CC(C)C[C@H](NC(=O)[C@H](Cc1ccccc1)NC(=O)c1cnccn1)B(O)O [Bortezomib] + O=C(c1cc(Cc2n[nH]c(=O)c3ccccc23)ccc1F)N1CCN(C(=O)C2CC2)CC1 [Olaparib] (partner 8 µM)
Summary of the method: (§1)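 One day after seeding in 1536-well plates, lung cancer cell lines were dosed by pin tool. Dosing was either single-drug or a fixed anchor-drug dose plus five library-drug doses (not always all listed) in √10 steps. After 5 days, nuclei were stained in one fix-and-stain step and counted on 4× images, and relative viability is the nuclei count of treated wells over that of vehicle wells, given as the median of duplicate plates.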

[2] = compound: COC1=CC(c2cc3ccccc3[nH]2)=N/C1=C\c1[nH]c(C)cc1C [Obatoclax] + C[C@]1(O)C[C@@H](c2nc(-c3ccc4ccc(-c5ccccc5)nc4c3)c3c(N)nccn32)C1 [Linsitinib] (partner 1 µM)
Summary of the method: as §1

[3] = compound: CC(C)C[C@H](NC(=O)[C@H](Cc1ccccc1)NC(=O)c1cnccn1)B(O)O [Bortezomib] + C[C@]1(O)C[C@@H](c2nc(-c3ccc4ccc(-c5ccccc5)nc4c3)c3c(N)nccn32)C1 [Linsitinib] (partner 1 µM)
Summary of the method: as §1

[4] = compound: CC1=CC(=NN1)NC2=CC(=NC(=N2)/C=C/C3=CC=CC=C3)N4CCN(CC4)C + C[C@]1(O)C[C@@H](c2nc(-c3ccc4ccc(-c5ccccc5)nc4c3)c3c(N)nccn32)C1 [Linsitinib] (partner 1 µM)
Summary of the method: as §1

Cell Line	relative viability ([1]; first compound 0.0002 µM)	relative viability ([1]; first compound 0.000632 µM)	relative viability ([1]; first compound 0.002 µM)	relative viability ([1]; first compound 0.006325 µM)	relative viability ([1]; first compound 0.02 µM)	relative viability ([2]; first compound 0.01 µM)	relative viability ([2]; first compound 0.03162 µM)	relative viability ([2]; first compound 0.1 µM)	relative viability ([2]; first compound 0.3162 µM)	relative viability ([2]; first compound 1 µM)	relative viability ([3]; first compound 0.0002 µM)	relative viability ([3]; first compound 0.000632 µM)	relative viability ([3]; first compound 0.002 µM)	relative viability ([3]; first compound 0.006325 µM)	relative viability ([3]; first compound 0.02 µM)	relative viability ([4]; first compound 0.08 µM)	relative viability ([4]; first compound 0.253 µM)	relative viability ([4]; first compound 0.8 µM)	relative viability ([4]; first compound 2.53 µM)	relative viability ([4]; first compound 8 µM)
H3255	0.579	0.545	0.36	0.233	0.237	0.893	0.976	0.985	0.884	0.892	0.914	1.02	0.705	0.263	0.19	0.95	1.09	0.975	0.886	0.391
EPLC-272H	0.9	0.746	0.171	0.0682	0.0612	1.13	1.22	1.15	1.03	1.2			1.26	1.29	0.109	1.11	1.32	1.06	0.675	0.367
NCI-H647	0.518	0.374	0.148	0.0277	0.0271	1.14	1.13	1.11	0.317	0.254	1.09	1.28	1.12	0.0274	0.0402	1.06	1.25	1.21	0.0813	0.0644
LXF-289	1.01	1.03		0.0822	0.0818	0.903	0.969	0.961	0.93	0.994	0.946	0.968	1	0.0941	0.0652	0.932	1.01	0.914	0.447	0.36
EBC-1	0.756	0.67	0.229	0.0791	0.064	0.771	0.879	0.922	0.87	0.65	0.902	0.801	0.516	0.0706	0.0667	0.852	0.874	0.923	0.71	0.317
NCI-H1755	0.845	0.896	0.828	0.241	0.207	0.986	0.996	0.96	0.991	1.03	1.01	0.955	1	0.323	0.149	1.05	1.04	0.993	0.799	0.267
HCC-15	0.763	0.734	0.662	0.108	0.0913	0.879	0.708	0.845	0.736	0.606	0.815	0.947	0.91	0.504	0.0972	0.908	0.967	0.853	0.469	0.149
EMC-BAC-2	0.469	0.486	0.487	0.258	0.185	0.796	0.817	0.827	0.797	0.875	0.828	0.805	0.786	0.46	0.132	0.821	0.91	0.77	0.594	0.204
NCI-H1734	0.555	0.661	0.443	0.115	0.0968	0.808	0.799		0.728	0.749	0.898	0.674	0.814	0.192	0.129	0.907	0.867	0.917	0.478	0.196
NCI-H1395	0.474	0.45	0.361	0.336	0.328	1.23	0.922	0.884	0.926	0.526	1.02	0.97	0.463	0.382	0.347	1	1.15	1.04	0.533	0.361
HOP-62	0.392	0.448	0.165	0.0947	0.0397	0.784	1.07	0.94	1.13	0.933	1.04	1.02	0.352	0.465	0.052	0.959	1.11	0.99	0.875	0.326
LK-2	0.699	0.695	0.714	0.169	0.123	0.524	0.383	0.826	0.521	0.662	0.409	0.551	0.353	0.17	0.142	0.522	0.876	0.75	0.31	0.104
SW 1573	0.421	0.408	0.319	0.0537	0.0441	0.768	0.832	0.803	0.801	0.81	0.663	0.775	0.766	0.144	0.0774	0.737	0.78	0.607	0.502	0.124
NCI-H1299	0.98	0.917	1.03	0.239	0.103	0.975	0.837	0.925	0.948	0.72	1	0.917	1.1	0.452	0.118	0.986	0.967	1.03	0.754	0.295
SK-LU-1	0.477	0.442	0.462	0.198	0.149	1.18	1.17	0.834	0.496	0.419	0.986	1.04	1.42	0.174	0.159	0.93	1.18	0.84	0.238	0.142
NCI-H23	0.362		0.247	0.0989	0.0819	0.588	0.598	0.647	0.606	0.598		0.574	0.586	0.276	0.114	0.61	0.641	0.58	0.313	0.163
